Test results reported in ChEMBL document CHEMBL5528040, “Design and Synthesis of Novel 3-Nitro-1H-1,2,4-triazole-1,2,3-triazole-1,4-disubstituted Analogs as Promising Antitrypanosomatid Agents: Evaluation of In Vitro Activity against Chagas Disease and Leishmaniasis” (J Med Chem, 2024).

What was measured:
[1] = Mutagenicity in Salmonella typhimurium TA98 assessed as number of revertant colonies at 10 ug per plate incubated for 90 mins by AMES test (reference value: 22.67 +/- 0.58); type: toxicity, Salmonella enterica subsp. enterica serovar Typhimurium; conditions: in vivo, 1.5 h, dose 10 µg
Trypanosoma cruzi [2] = experiment: (§1) Antitrypanosomal activity against Trypanosoma cruzi Tulahuen amastigotes transfected with Escherichia coli beta-galactosidase LacZ gene infected in monkey LLC-MK2 cells assessed as inhibition of amastigotes growth incubated for 72 hrs by absorbance based microplate reader analysis; type: functional, organism-based; conditions: LLC-MK2, 72 h
Leishmania amazonensis = experiment: Antileishmanial activity against Leishmania amazonensis IFLA/BR/1967/PH8 amastigotes infected in murine peritoneal macrophages incubated for 24 hrs by Giemsa staining based analysis; type: functional, organism-based; conditions: IFLA/BR/1967/PH8, Peritoneal macrophage
[3] = Cytotoxicity against monkey LLC-MK2 cells incubated for 72 hrs by MTT assay; type: toxicity, cell-based, Macaca mulatta; conditions: rhesus monkey
[4] = Selectivity index, ratio of CC50 for cytotoxicity against monkey LLC-MK2 cells to IC50 for antitrypanosomal activity against Trypanosoma cruzi Tulahuen amastigotes transfected with Escherichia coli beta-galactosidase LacZ gene infected in monkey LLC-MK2 cells; type: toxicity, cell-based; conditions: read-out: Ratio CC50/IC50
[5] = Substrate activity at Trypanosoma cruzi type I nitro reductase assessed as reduction in NADH incubated for 120 sec by spectrophotometric analysis
Trypanosoma cruzi [6] = experiment: as §1, with “Potency index, ratio of Benznidazole IC50 to test compound IC50 for antitrypanosomal” for “Antitrypanosomal”; type: functional
[7] = Mutagenicity in Salmonella typhimurium TA100 assessed as number of revertant colonies at 2.5 ug per plate incubated for 90 mins by AMES test (reference value: 88.00 +/- 2.65); type: toxicity, Salmonella enterica subsp. enterica serovar Typhimurium; conditions: in vivo, 1.5 h, dose 2.5 µg

## Nc1ccc([N+](=O)[O-])cc1N
[1]
  Activity: 253

## O=C(O)c1ccc(-n2cc(Cn3cnc([N+](=O)[O-])n3)nn2)cc1
Trypanosoma cruzi [2]
  IC50: > 50 µM
Leishmania amazonensis
  IC50: 4.7 µM
[3]
  CC50 at 72 h: > 50 µM
[4]
  selectivity ratio: > 1

## O=[N+]([O-])c1ncn(Cc2cn(-c3ccc(F)c(F)c3)nn2)n1
Trypanosoma cruzi [2]
  IC50: 22.6 µM
Leishmania amazonensis
  IC50: 4.7 µM
[3]
  CC50 at 72 h: > 50 µM
[4]
  selectivity ratio: > 4.4

## O=[N+]([O-])c1ncn(Cc2cn(-c3cccc(C(F)(F)F)c3)nn2)n1
Trypanosoma cruzi [2]
  IC50: 5.8 µM
Leishmania amazonensis
  IC50: 4.7 µM
[3]
  CC50 at 72 h: > 50 µM
[4]
  selectivity ratio: > 17.2

## COc1cc(OC)cc(-n2cc(Cn3cnc([N+](=O)[O-])n3)nn2)c1
[5]
  pIC50: 6.65
Trypanosoma cruzi [2]
  IC50: 0.22 µM
Leishmania amazonensis
  IC50: 4.7 µM
[3]
  CC50 at 72 h: > 50 µM
[4]
  selectivity ratio: > 227

## COc1ccc(-n2cc(Cn3cnc([N+](=O)[O-])n3)nn2)cc1OC
[5]
  pIC50: 5.95
Trypanosoma cruzi [2]
  IC50: 1.12 µM
Leishmania amazonensis
  IC50: 4.7 µM
[3]
  CC50 at 72 h: > 50 µM
[4]
  selectivity ratio: > 44.6

## CSc1ccc(-n2cc(Cn3cnc([N+](=O)[O-])n3)nn2)cc1
[5]
  pIC50: 6.67
Trypanosoma cruzi [2]
  IC50: 0.21 µM
Leishmania amazonensis
  IC50: 4.7 µM
[3]
  CC50 at 72 h: > 50 µM
[4]
  selectivity ratio: > 238

## CCOC(=O)c1ccc(-n2cc(Cn3cnc([N+](=O)[O-])n3)nn2)cc1
Trypanosoma cruzi [2]
  IC50: 38.4 µM
Leishmania amazonensis
  IC50: 4.7 µM
[3]
  CC50 at 72 h: > 50 µM
[4]
  selectivity ratio: > 1.3

## CS(=O)(=O)c1ccc(-n2cc(Cn3cnc([N+](=O)[O-])n3)nn2)cc1
Trypanosoma cruzi [2]
  IC50: > 50 µM
Leishmania amazonensis
  IC50: 4.7 µM
[3]
  CC50 at 72 h: > 50 µM
[4]
  selectivity ratio: > 1

## O=[N+]([O-])c1ccc(-n2cc(Cn3cnc([N+](=O)[O-])n3)nn2)cc1
[5]
  pIC50: 6.21
Trypanosoma cruzi [2]
  IC50: 0.61 µM
Leishmania amazonensis
  IC50: 4.7 µM
[3]
  CC50 at 72 h: > 50 µM
[4]
  selectivity ratio: > 82

## COc1cccc(-n2cc(Cn3cnc([N+](=O)[O-])n3)nn2)c1
Trypanosoma cruzi [2]
  IC50: 7.93 µM
Leishmania amazonensis
  IC50: 4.7 µM
[3]
  CC50 at 72 h: > 50 µM
[4]
  selectivity ratio: > 6.3

## O=[N+]([O-])c1ncn(Cc2cn(-c3ccc(Cl)c(Cl)c3)nn2)n1
[5]
  pIC50: 6.95
Trypanosoma cruzi [2]
  IC50: 0.11 µM
Leishmania amazonensis
  IC50: 4.7 µM
[3]
  CC50 at 72 h: > 50 µM
Trypanosoma cruzi [6]
  Ratio IC50: <=55
[4]
  selectivity ratio: > 454

## O=[N+]([O-])c1ncn(Cc2cn(-c3ccc(C(F)(F)F)cc3)nn2)n1
Trypanosoma cruzi [2]
  IC50: 3.6 µM
Leishmania amazonensis
  IC50: 4.7 µM
[3]
  CC50 at 72 h: > 50 µM
[4]
  selectivity ratio: > 27.9

## N#Cc1ccc(-n2cc(Cn3cnc([N+](=O)[O-])n3)nn2)cc1
Trypanosoma cruzi [2]
  IC50: 1.45 µM
Leishmania amazonensis
  IC50: 4.7 µM
[3]
  CC50 at 72 h: > 50 µM
[4]
  selectivity ratio: > 34.5

## NS(=O)(=O)c1ccc(-n2cc(Cn3cnc([N+](=O)[O-])n3)nn2)cc1
Trypanosoma cruzi [2]
  IC50: > 50 µM
Leishmania amazonensis
  IC50: 4.7 µM
[3]
  CC50 at 72 h: > 50 µM
[4]
  selectivity ratio: > 1

## COc1cc(-n2cc(Cn3cnc([N+](=O)[O-])n3)nn2)cc(OC)c1OC
Trypanosoma cruzi [2]
  IC50: 2.89 µM
Leishmania amazonensis
  IC50: 4.7 µM
[3]
  CC50 at 72 h: > 50 µM
[4]
  selectivity ratio: > 17.3

## N#Cc1cccc(-n2cc(Cn3cnc([N+](=O)[O-])n3)nn2)c1
Trypanosoma cruzi [2]
  IC50: 7.35 µM
Leishmania amazonensis
  IC50: 4.7 µM
[3]
  CC50 at 72 h: > 50 µM
[4]
  selectivity ratio: > 6.8

## O=[N+]([O-])c1ncn(Cc2cn(-c3cccc(Cl)c3)nn2)n1
Trypanosoma cruzi [2]
  IC50: 5.72 µM
Leishmania amazonensis
  IC50: 4.7 µM
[3]
  CC50 at 72 h: > 50 µM
[4]
  selectivity ratio: > 8.74

## O=[N+]([O-])c1ncn(Cc2cn(-c3ccc(F)cc3)nn2)n1
[5]
  pIC50: 5.95
Trypanosoma cruzi [2]
  IC50: 1.11 µM
Leishmania amazonensis
  IC50: 4.7 µM
[3]
  CC50 at 72 h: > 50 µM
[4]
  selectivity ratio: > 45

## COc1ccc(-n2cc(Cn3ccnc3[N+](=O)[O-])nn2)cc1OC
Trypanosoma cruzi [2]
  IC50: 0.65 µM

## O=[N+]([O-])c1ncn(Cc2cn(-c3ccccc3)nn2)n1
[5]
  pIC50: 5.86
Trypanosoma cruzi [2]
  IC50: 1.35 µM
Leishmania amazonensis
  IC50: 4.7 µM
[3]
  CC50 at 72 h: > 50 µM
[4]
  selectivity ratio: > 37

## O=[N+]([O-])c1ncn(Cc2cn(-c3ccc(Cl)c(C(F)(F)F)c3)nn2)n1
Trypanosoma cruzi [2]
  IC50: 9.89 µM
Leishmania amazonensis
  IC50: 4.7 µM
[3]
  CC50 at 72 h: > 50 µM
[4]
  selectivity ratio: > 5.05

## O=C(O)c1cccc(-n2cc(Cn3cnc([N+](=O)[O-])n3)nn2)c1
Trypanosoma cruzi [2]
  IC50: > 50 µM
Leishmania amazonensis
  IC50: 4.7 µM
[3]
  CC50 at 72 h: > 50 µM
[4]
  selectivity ratio: > 1

## Cc1ccc(-n2cc(Cn3cnc([N+](=O)[O-])n3)nn2)cc1
[5]
  pIC50: 6.48
Trypanosoma cruzi [2]
  IC50: 0.33 µM
Leishmania amazonensis
  IC50: 4.7 µM
[3]
  CC50 at 72 h: > 50 µM
[4]
  selectivity ratio: > 152

## O=[N+]([O-])c1cccc(-n2cc(Cn3cnc([N+](=O)[O-])n3)nn2)c1
Trypanosoma cruzi [2]
  IC50: 24.4 µM
Leishmania amazonensis
  IC50: 4.7 µM
[3]
  CC50 at 72 h: > 50 µM
[4]
  selectivity ratio: > 4.1

## O=[N+]([O-])c1ncn(Cc2cn(-c3ccc(Oc4ccccc4)cc3)nn2)n1
[5]
  pIC50: 7.15
Trypanosoma cruzi [2]
  IC50: 0.07 µM
Leishmania amazonensis
  IC50: 4.7 µM
[3]
  CC50 at 72 h: > 50 µM
[4]
  selectivity ratio: > 714

## O=[N+]([O-])c1ncn(Cc2cn(-c3ccc4c(c3)OCO4)nn2)n1
Trypanosoma cruzi [2]
  IC50: 13.8 µM
Leishmania amazonensis
  IC50: 89.5 µM
[3]
  CC50 at 72 h: > 50 µM
[4]
  selectivity ratio: > 3.62

## O=[N+]([O-])c1ncn(Cc2cn(-c3ccc(Cl)cc3)nn2)n1
[5]
  pIC50: 6.5
Trypanosoma cruzi [2]
  IC50: 0.31 µM
Leishmania amazonensis
  IC50: 4.7 µM
[3]
  CC50 at 72 h: > 50 µM
[4]
  selectivity ratio: > 161

## COc1ccc(-n2cc(Cn3cnc([N+](=O)[O-])n3)nn2)cc1
[5]
  pIC50: 6.07
Trypanosoma cruzi [2]
  IC50: 0.84 µM
Leishmania amazonensis
  IC50: 4.7 µM
[3]
  CC50 at 72 h: > 50 µM
[4]
  selectivity ratio: > 59.5

## Nc1ccc2cc3ccccc3cc2c1 [2-AMINOANTHRACENE]
[7]
  Activity: 977.33

## O=C(Cn1ccnc1[N+](=O)[O-])NCc1ccccc1 [BENZNIDAZOLE]
[3]
  CC50 at 72 h: > 50 µM
[4]
  selectivity ratio: > 8.13
